For the assay, the target named is Muscarinic acetylcholine receptor M3 (Cavia porcellus, UniProt Q8VH26). As to the kind of experiment: The compound was tested for antagonistic activity against Muscarinic acetylcholine receptor M3 in guinea pig trachea. It counts as functional. As to conditions: read-out: pA2 (converted).
Chain of Muscarinic acetylcholine receptor M3 (Q8VH26 whole entry): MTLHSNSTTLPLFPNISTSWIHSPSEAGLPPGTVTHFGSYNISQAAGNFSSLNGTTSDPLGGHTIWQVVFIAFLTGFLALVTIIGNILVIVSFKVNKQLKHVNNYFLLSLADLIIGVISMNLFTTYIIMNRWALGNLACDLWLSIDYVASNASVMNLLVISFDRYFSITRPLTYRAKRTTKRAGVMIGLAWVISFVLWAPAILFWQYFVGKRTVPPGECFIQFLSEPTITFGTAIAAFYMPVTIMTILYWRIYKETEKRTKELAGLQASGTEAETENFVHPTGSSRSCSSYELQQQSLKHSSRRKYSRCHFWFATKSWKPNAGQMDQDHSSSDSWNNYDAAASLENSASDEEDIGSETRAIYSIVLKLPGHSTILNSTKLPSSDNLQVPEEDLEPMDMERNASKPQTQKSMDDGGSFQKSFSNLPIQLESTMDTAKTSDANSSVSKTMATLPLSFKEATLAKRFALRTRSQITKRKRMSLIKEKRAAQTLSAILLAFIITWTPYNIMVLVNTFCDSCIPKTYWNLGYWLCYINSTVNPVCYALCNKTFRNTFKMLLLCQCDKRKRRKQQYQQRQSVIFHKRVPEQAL
`CCCOc1ccccc1C(=O)NC1CCCCC1CN1CCCCC1` (stereo not drawn): the Kb is 14800 nM.
`O=C(Nc1ccccc1)OC1CCCCC1CN1CCOCC1` (stereo not drawn): the Kb is 2880 nM.
In the case of `CCN(CC)CCOc1ccccc1C(=O)Cc1ccccc1`, the Kb was 214 nM.

The values are drawn from ChEMBL document CHEMBL1132349, “Lead generation using pharmacophore mapping and three-dimensional database searching: application to muscarinic M(3) receptor antagonists” (J Med Chem, 1999).
